# Structures can show the parent of a compound that is named as a salt.
# Tested on: sympathetic nerves
# Assay: Measurement of sympathetic nerve activity by systolic blood pressure fluctuation analysis (FLUCLET) while smelling fragrance
# Type: in vivo
# Conditions: subjects smelling fragrance 3 minutes vs 3 minutes without fragrance, FIG. 1-4
# Text: Cardiac rate intervals (heartbeat intervals) and blood pressure changes (fluctuations) are complex even during resting periods, and are governed by several systems including the sympathetic and parasympathetic nervous systems. It is known that frequency analysis of heartbeat intervals and blood pressure fluctuations can used to calculate the activity of each of these systems. The high-frequency component of cardiac rate fluctuation indicates parasympathetic nerve activity while the low-frequency component indicates the combined activity of the sympathetic and parasympathetic nervous systems, and the low-frequency component of blood pressure fluctuation indicates sympathetic nerve activity (from material by Dainippon Pharmaceutical Co.). Sympathetic nerve activity was measured by analysis of systolic blood pressure fluctuation using an autonomic nervous system activity analysis system (FLUCLET, product of Dainippon Pharmaceutical Co.). Subjects were allowed to rest for 5 minutes in a thermostatic room at room temperature (24° C.), the blood pressure value was measured on the upper arm and used to correct the blood pressure value at the wrist, and then the wrist blood pressure was continuously measured thereafter. Cotton was placed under the nostrils at the start of measurement, the blood pressure was measured for 3 minutes without fragrant substance, and then the nose cotton was impregnated with fragrant substance and the blood pressure was measured for 3 minutes.
row,Molecule,effect of fragrance on relative sympathetic nerve activity (in words)
1,"CCOC(=O)CC(O)(CC(=O)OCC)C(=O)OCC [TEC, triethyl citrate, reference compound]",no change
2,O=C(OCc1ccccc1)c1ccccc1 [benzyl benzoate],increased effect of sympathetic nerve activity
3,C=C(C)[C@H]1CC=C(C)CC1 [limonene],increased effect of sympathetic nerve activity
4,C=CC(=C)CCC=C(C)C [myrcene],increased effect of sympathetic nerve activity
5,pinene,increased effect of sympathetic nerve activity

# Tested on: uncoupling protein-3
# Assay: not given
# Conditions: 70 mg subcutaneous tissue from 6-week-old rats; caffeine 1 mM, noradrenaline 0.5 μg/ml; FIG. 6
row,Molecule,expression of uncoupling protein-3
1,Cn1c(=O)c2c(ncn2C)n(C)c1=O [caffeine],increased expression
